Laboratory results reported in US12612387B2, “RAS inhibitors and methods of using the same” (Jazz Pharmaceuticals Ireland Limited, priority 2020, dated 2026).

Columns and labels:
K-RAS G12C = target: T1, K-RAS G12C (Homo sapiens, UniProt P01116, G12C); assay: Compound depletion assay, K-RAS G12C; assay type: binding; details: G12C protein 20 μM, compound 8 μM, 25° C.
T1 construct: His tag; purchased Stratech
In short: (§1)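 His-tagged K-RAS (20 μM) in 20 mM HEPES pH 7.5, 150 mM NaCl, 1 mM MgCl2 incubated with 8 μM compound (final) at 25 °C with agitation. At 0, 30, 180, 360, 1440 min, samples were acid/acetonitrile-quenched and remaining free compound quantified by LC-MS/MS against propranolol, as percent of time zero.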

K-RAS G12D = target: T2, K-RAS G12D (Homo sapiens, UniProt P01116, G12D); assay: Compound depletion assay, K-RAS G12D; assay type: binding; details: G12D protein 20 μM, compound 8 μM, 25° C.
T2 construct: His tag; purchased Stratech
T2 sequence (P01116 1-188 isoform P01116-2 G12D): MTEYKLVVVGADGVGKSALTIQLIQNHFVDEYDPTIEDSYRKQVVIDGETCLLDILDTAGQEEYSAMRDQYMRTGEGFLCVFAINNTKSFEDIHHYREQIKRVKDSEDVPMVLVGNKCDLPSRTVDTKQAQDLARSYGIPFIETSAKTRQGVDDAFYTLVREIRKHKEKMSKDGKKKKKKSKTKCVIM
In short: as §1

T1 sequence (P01116 1-188 isoform P01116-2 G12C): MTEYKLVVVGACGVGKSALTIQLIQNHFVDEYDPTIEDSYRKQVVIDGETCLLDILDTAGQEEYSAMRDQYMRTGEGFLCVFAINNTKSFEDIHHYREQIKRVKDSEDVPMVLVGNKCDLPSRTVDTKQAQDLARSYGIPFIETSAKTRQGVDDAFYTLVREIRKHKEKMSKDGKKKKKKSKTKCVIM

Structure (SMILES)	30 min Category (compound remaining at timepoint) (K-RAS G12C)	3 hr Category (compound remaining at timepoint) (K-RAS G12C)	6 hr Category (compound remaining at timepoint) (K-RAS G12C)	30 min Category (compound remaining at timepoint) (K-RAS G12D)	3 hr Category (compound remaining at timepoint) (K-RAS G12D)	6 hr Category (compound remaining at timepoint) (K-RAS G12D)	24 hr Category (compound remaining at timepoint) (K-RAS G12C)	24 hr Category (compound remaining at timepoint) (K-RAS G12D)
C=CC(=O)N1CCN(c2cc(C(=O)Nc3cc(O)cc4ccccc34)nc(OCC3CCCN(C)C3)n2)C[C@@H]1CC#N (stereo partly drawn) [Example 50, 6-[(3S)-3-(cyanomethyl)-4-prop-2-enoyl-piperazin-1-yl]-N-(3-hydroxy-1-naphthyl)-2-[(1-methyl-3-piperidyl)methoxy]pyrimidine-4-carboxamide]	C (≤30% compound remaining at timepoint)	C (≤30% compound remaining at timepoint)	C (≤30% compound remaining at timepoint)	A (≥70% compound remaining at timepoint)	A (≥70% compound remaining at timepoint)	A (≥70% compound remaining at timepoint)		
C=CC(=O)N1CCN(c2cc(C(=O)Nc3cc(O)cc4ccccc34)nc(-c3cccc4c3cnn4C)n2)C[C@@H]1CC#N [Example 38, 6-[(3S)-3-(cyanomethyl)-4-prop-2-enoyl-piperazin-1-yl]-N-(3-hydroxy-1-naphthyl)-2-(1-methylindazol-4-yl)pyrimidine-4-carboxamide]	A (≥70% compound remaining at timepoint)	A (≥70% compound remaining at timepoint)	A (≥70% compound remaining at timepoint)	A (≥70% compound remaining at timepoint)	A (≥70% compound remaining at timepoint)	A (≥70% compound remaining at timepoint)		
C=CC(=O)N1CCN(c2cc(C(=O)Nc3cc(O)cc4ccccc34)nc(N3CCN(CCO)CC3)n2)C[C@@H]1CC#N [Example 37, 6-[(3S)-3-(cyanomethyl)-4-prop-2-enoyl-piperazin-1-yl]-2-[4-(2-hydroxyethyl)piperazin-1-yl]-N-(3-hydroxy-1-naphthyl)pyrimidine-4-carboxamide]	B (30%-70% compound remaining at timepoint)	C (≤30% compound remaining at timepoint)	C (≤30% compound remaining at timepoint)	A (≥70% compound remaining at timepoint)	A (≥70% compound remaining at timepoint)	A (≥70% compound remaining at timepoint)		
C=CC(=O)N1CCN(c2cc(C(=O)Nc3cc(O)cc4ccccc34)nc(NCC3CCCN(C)C3)n2)C[C@@H]1CC#N (stereo partly drawn) [Example 43, 6-[(3S)-3-(cyanomethyl)-4-prop-2-enoyl-piperazin-1-yl]-N-(3-hydroxy-1-naphthyl)-2-[(1-methyl-3-piperidyl)methylamino]pyrimidine-4-carboxamide]	B (30%-70% compound remaining at timepoint)	C (≤30% compound remaining at timepoint)	C (≤30% compound remaining at timepoint)	A (≥70% compound remaining at timepoint)	A (≥70% compound remaining at timepoint)	A (≥70% compound remaining at timepoint)		
C=CC(=O)N1CCN(c2cc(C(=O)Nc3cc(O)cc4ccccc34)nc(OC[C@@H]3CCCN3CCO)n2)C[C@@H]1CC#N [Example 53, 6-[(3S)-3-(cyanomethyl)-4-prop-2-enoyl-piperazin-1-yl]-2-[[(2S)-1-(2-hydroxyethyl)pyrrolidin-2-yl]methoxy]-N-(3-hydroxy-1-naphthyl)pyrimidine-4-carboxamide]	C (≤30% compound remaining at timepoint)	C (≤30% compound remaining at timepoint)	C (≤30% compound remaining at timepoint)	A (≥70% compound remaining at timepoint)	A (≥70% compound remaining at timepoint)	A (≥70% compound remaining at timepoint)		
C=CC(=O)N1CCN(c2cc(C(=O)Nc3cc(O)cc4ccccc34)nc(OC[C@@H]3CCCN3CC)n2)C[C@@H]1CC#N [Example 51, 6-[(3S)-3-(cyanomethyl)-4-prop-2-enoyl-piperazin-1-yl]-2-[[(2S)-1-ethylpyrrolidin-2-yl]methoxy]-N-(3-hydroxy-1-naphthyl)pyrimidine-4-carboxamide]	C (≤30% compound remaining at timepoint)	C (≤30% compound remaining at timepoint)	C (≤30% compound remaining at timepoint)	A (≥70% compound remaining at timepoint)	A (≥70% compound remaining at timepoint)	A (≥70% compound remaining at timepoint)		
C=CC(=O)N1CCN(c2cc(C(=O)Nc3c(C)ccc4ncccc34)nc(OC[C@@H]3CCCN3C)n2)CC1 [Example 19, 2-[[(2S)-1-methylpyrrolidin-2-yl]methoxy]-N-(6-methyl-5-quinolyl)-6-(4-prop-2-enoylpiperazin-1-yl)pyrimidine-4-carboxamide]		A (≥70% compound remaining at timepoint)			A (≥70% compound remaining at timepoint)		A (≥70% compound remaining at timepoint)	A (≥70% compound remaining at timepoint)
C=CC(=O)N1CCN(c2cc(C(=O)Nc3ccccc3)nc(OC[C@@H]3CCCN3C)n2)CC1 [Example 18, 2-[[(2S)-1-methylpyrrolidin-2-yl]methoxy]-N-phenyl-6-(4-prop-2-enoylpiperazin-1-yl)pyrimidine-4-carboxamide]		A (≥70% compound remaining at timepoint)			A (≥70% compound remaining at timepoint)		A (≥70% compound remaining at timepoint)	A (≥70% compound remaining at timepoint)
C=CC(=O)N1CCN(c2cc(C(=O)Nc3cc(O)cc4ccccc34)nc(-c3ccccn3)n2)C[C@@H]1CC#N [Example 31, 6-[(3S)-3-(cyanomethyl)-4-prop-2-enoyl-piperazin-1-yl]-N-(3-hydroxy-1-naphthyl)-2-(2-pyridyl)pyrimidine-4-carboxamide]	A (≥70% compound remaining at timepoint)	B (30%-70% compound remaining at timepoint)	B (30%-70% compound remaining at timepoint)	A (≥70% compound remaining at timepoint)	A (≥70% compound remaining at timepoint)	A (≥70% compound remaining at timepoint)		
C=CC(=O)N1CCN(c2cc(C(=O)N3CCOc4ccccc43)nc(OC[C@@H]3CCCN3C)n2)CC1 [Example 16, 1-[4-[6-(2,3-dihydro-1,4-benzoxazine-4-carbonyl)-2-[[(2S)-1-methylpyrrolidin-2-yl]methoxy]pyrimidin-4-yl]piperazin-1-yl]prop-2-en-1-one]		A (≥70% compound remaining at timepoint)			A (≥70% compound remaining at timepoint)		A (≥70% compound remaining at timepoint)	A (≥70% compound remaining at timepoint)
C=CC(=O)N1CCN(c2cc(C(=O)Nc3cc(O)cc4ccccc34)nc(OCC3CN(C)CCO3)n2)C[C@@H]1CC#N (stereo in doubt) [Example 52, 6-[(3S)-3-(cyanomethyl)-4-prop-2-enoyl-piperazin-1-yl]-N-(3-hydroxy-1-naphthyl)-2-[[(2R)-4-methylmorpholin-2-yl]methoxy]pyrimidine-4-carboxamide]	C (≤30% compound remaining at timepoint)	C (≤30% compound remaining at timepoint)	C (≤30% compound remaining at timepoint)	A (≥70% compound remaining at timepoint)	A (≥70% compound remaining at timepoint)	A (≥70% compound remaining at timepoint)		
C=CC(=O)N1CCN(c2cc(C(=O)Nc3cc(O)cc4ccccc34)nc(NCC3CCCCN3C)n2)C[C@@H]1CC#N (stereo partly drawn) [Example 49, 6-[(3S)-3-(cyanomethyl)-4-prop-2-enoyl-piperazin-1-yl]-N-(3-hydroxy-1-naphthyl)-2-[(1-methyl-2-piperidyl)methylamino]pyrimidine-4-carboxamide]	B (30%-70% compound remaining at timepoint)	C (≤30% compound remaining at timepoint)	C (≤30% compound remaining at timepoint)	A (≥70% compound remaining at timepoint)	A (≥70% compound remaining at timepoint)	A (≥70% compound remaining at timepoint)		
